Assay [1] has as its target PIK3CA (human) (UniProt P42336). In words: Inhibition of PIK3CA Kinase Activity.
For assay [2], the target named is PIK3CA (human), P42336 [Antiproliferation of PI3K Mutated BT20 Cells]. In words: Cell-Based Assay.
Chain of PIK3CA (human), P42336 [Antiproliferation of PI3K Mutated BT20 Cells] (P42336 whole entry, looked up, change not shown): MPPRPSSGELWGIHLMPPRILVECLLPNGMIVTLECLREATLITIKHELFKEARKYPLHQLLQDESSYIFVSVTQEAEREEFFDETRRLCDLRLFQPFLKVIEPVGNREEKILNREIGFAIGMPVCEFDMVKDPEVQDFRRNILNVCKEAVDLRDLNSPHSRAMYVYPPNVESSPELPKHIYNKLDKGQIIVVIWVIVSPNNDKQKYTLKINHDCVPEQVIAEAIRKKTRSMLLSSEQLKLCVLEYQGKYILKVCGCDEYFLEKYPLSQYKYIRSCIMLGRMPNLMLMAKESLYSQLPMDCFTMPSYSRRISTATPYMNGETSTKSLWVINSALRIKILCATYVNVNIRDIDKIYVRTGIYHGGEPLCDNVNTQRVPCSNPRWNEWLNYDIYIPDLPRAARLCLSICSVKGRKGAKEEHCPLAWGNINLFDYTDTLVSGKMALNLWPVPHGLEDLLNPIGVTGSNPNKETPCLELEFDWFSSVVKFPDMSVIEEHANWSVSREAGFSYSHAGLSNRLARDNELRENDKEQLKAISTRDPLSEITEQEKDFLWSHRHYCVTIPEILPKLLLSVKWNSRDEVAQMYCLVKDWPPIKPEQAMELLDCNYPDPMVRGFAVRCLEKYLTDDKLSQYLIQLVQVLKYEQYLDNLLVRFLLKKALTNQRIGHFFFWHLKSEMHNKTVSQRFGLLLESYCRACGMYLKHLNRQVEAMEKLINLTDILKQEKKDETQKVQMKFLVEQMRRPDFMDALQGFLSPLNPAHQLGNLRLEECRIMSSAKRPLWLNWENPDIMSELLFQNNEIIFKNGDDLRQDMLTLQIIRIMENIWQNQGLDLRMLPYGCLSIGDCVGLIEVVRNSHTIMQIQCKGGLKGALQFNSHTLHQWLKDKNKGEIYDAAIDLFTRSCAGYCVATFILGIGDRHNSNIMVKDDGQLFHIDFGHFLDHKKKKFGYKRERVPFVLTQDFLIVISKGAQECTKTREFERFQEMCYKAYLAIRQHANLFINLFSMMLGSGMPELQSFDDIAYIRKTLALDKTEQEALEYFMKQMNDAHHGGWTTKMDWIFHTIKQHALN

Chain of PIK3CA (human) (P42336 whole entry, looked up): as the sequence (P42336 whole entry, looked up, change not shown) above

For `CNc1nc(C)c2cc(C(=O)Nc3cc[nH]n3)c(=O)n(C3CCCC3)c2n1`, the figures for the 50% inhibitory concentration (IC50) in assay [1] and in assay [2] were 0.00234 µM and 0.0164 µM, respectively.

On to `CNc1nc(C)c2cc(-c3cccc(OC)c3)c(=O)n(C3CCCC3)c2n1`, for which the IC50 (in general, the concentration needed to halve the response being measured) was 0.244 µM in assay [1] and 0.669 µM in assay [2].

With `Cc1nc(N)nc2c1cc(-c1cnc3[nH]ccc3c1)c(=O)n2[C@@H]1CC[C@H](O)C1`, the 50% inhibitory concentration (IC50) came out at 0.0012 µM in assay [1] and 0.0204 µM in assay [2].

Take `Cc1nc(N)nc2c1cc(-c1cnc3[nH]ccc3c1)c(=O)n2C1CCOCC1`: the concentration for half-maximal inhibition (IC50) in assay [1] was determined as 0.0037 µM; in assay [2] it was 0.0153 µM.

With `Cc1nc(N)nc2c1cc(-c1cn[nH]c1)c(=O)n2[C@H]1CC[C@H](OCCO)CC1`, the IC50 stood at 0.00758 µM in assay [1] and 0.0335 µM in assay [2].

In the case of `CNc1nc(C)c2cc(-c3ccc(OC)nc3)c(=O)n(CC3CCOC3)c2n1` (stereo unspecified), the IC50 is 0.0046 µM in assay [1] and 0.0456 µM in assay [2].

In the case of `COc1ncc(-c2cc3c(C)nc(N)nc3n([C@H]3C[C@H](OCCO)C3)c2=O)cc1F`, the IC50 in assay [1] was found to be 0.00311 µM; in assay [2] it was 0.0146 µM.

In the case of `CCNc1nc(C)c2cc(-c3cccc(OC)c3)c(=O)n(C3CCCC3)c2n1`, the results for the 50% inhibitory concentration (IC50) in assay [1] and in assay [2] were 0.792 µM and 1.39 µM, respectively.

`CNc1nc(C)c2cc(C(N)=O)c(=O)n(C3CCCC3)c2n1`: the concentration for half-maximal inhibition (IC50) in assay [1] was found to be 0.068 µM; in assay [2], 0.65 µM.

Turning to `COc1ccc(-c2cc3c(C)nc(N)nc3n(CCN)c2=O)cn1`, the IC50 in assay [1] was 0.34 µM; in assay [2], 4.53 µM.

Take `CCNc1nc(C)c2cc(CCC(=O)Nc3ncc[nH]3)c(=O)n(C3CCCC3)c2n1`: the figures for the concentration for half-maximal inhibition (IC50) in assay [1] and in assay [2] were 0.31 µM and 5.71 µM, respectively.

As to `Cc1nc(N)nc2c1cc(-c1cncc(N)n1)c(=O)n2C1CCCC1`, the IC50 came out at 0.02 µM in assay [1] and 0.0339 µM in assay [2].

As to `COc1ncc(-c2cc3c(C)nc(N)nc3n(C3CCCC3)c2=O)cn1`, the half-inhibitory concentration (IC50) in assay [1] came to 0.002 µM; in assay [2], 0.00957 µM.

Take `COc1ncc(-c2cc3c(C)nc(N)nc3n([C@H]3C[C@H](OCC(N)=O)C3)c2=O)cn1`: the values for the IC50 in assay [1] and in assay [2] were 0.00591 µM and 0.11 µM, respectively.

Turning to `Cc1nc(N)nc2c1cc(-c1ccc(C#N)nc1)c(=O)n2[C@H]1CC[C@H](O)CC1`, the 50% inhibitory concentration (IC50) in assay [1] is 0.47 µM; in assay [2] it was 2.69 µM.

For `Cc1nc(N)nc2c1cc(-c1cnc(O)nc1)c(=O)n2C(C)C`, the IC50 came to 0.3 µM in assay [1] and 2.52 µM in assay [2].

Take `COc1ccc(-c2cc3c(C)nc(NCC(C)(C)O)nc3n(C3CCCC3)c2=O)cn1`: the half-inhibitory concentration (IC50) in assay [1] was 0.83 µM; in assay [2], 5.75 µM.

As for `CNc1nc(C)c2cc(-c3cnn(CCO)c3)c(=O)n(C3CCCC3)c2n1`, the IC50 in assay [1] was 0.024 µM; in assay [2], 0.234 µM.

As for `COc1ncc(-c2cc3c(C)nc(N)nc3n([C@H]3CC[C@@H](OCCO)CC3)c2=O)cn1`, the concentration for half-maximal inhibition (IC50) was determined as 0.00531 µM in assay [1] and 0.0153 µM in assay [2].

In the case of `CNc1nc(C)c2cc(C(=O)Nc3ccon3)c(=O)n(C3CCCC3)c2n1`, the half-inhibitory concentration (IC50) worked out at 0.005 µM in assay [1] and 0.0722 µM in assay [2].

In the case of `COc1ccc(-c2cc3c(C)nc(NCC(F)F)nc3n([C@H]3CC[C@H](O)CC3)c2=O)cn1`, the figures for the IC50 in assay [1] and in assay [2] were 0.012 µM and 0.0468 µM, respectively.

With `Cc1nc(N)nc2c1cc(-c1cn[nH]c1)c(=O)n2C1CCOCC1`, the IC50 was determined as 0.0185 µM in assay [1] and 0.0199 µM in assay [2].

In the case of `COc1ccc(-c2cc3c(C)nc(N)nc3n(C3CCN(C(C)=O)C3)c2=O)cn1` (stereo unspecified), the half-maximal inhibitory concentration (IC50) in assay [1] amounted to 0.007 µM; in assay [2] it was 0.127 µM.

For the molecule `Cc1nc(N)nc2c1cc(-c1cn[nH]c1)c(=O)n2C1CN(C(=O)OC(C)(C)C)C1`, the IC50 in assay [1] came out at 0.12 µM; in assay [2], 0.0415 µM.

`CCNc1nc(C)c2cc(-c3cnc(OC)nc3)c(=O)n([C@H]3CC[C@H](O)CC3)c2n1`: the IC50 in assay [1] was 0.00159 µM; in assay [2] it was 0.0206 µM.

With `CNc1nc(C)c2cc(-c3ccc(OC)nc3)c(=O)n(CCC3CC3)c2n1`, the concentration for half-maximal inhibition (IC50) is 0.0089 µM in assay [1] and 0.0414 µM in assay [2].

In the case of `Cc1nc(N)nc2c1cc(-c1cnc3[nH]ccc3c1)c(=O)n2CC1CCOC1` (stereo unspecified), the IC50 in assay [1] stood at 0.0028 µM; in assay [2], 0.0578 µM.

For `CCN(CC)C(=O)OCn1cc(-c2cc3c(C)nc(N)nc3n(C(C)C)c2=O)nn1`, the figures for the IC50 in assay [1] and in assay [2] were 3.3 µM and 10 µM, respectively.

Take `Cc1nc(N)nc2c1cc(-c1cnn(CC(F)F)c1)c(=O)n2C1CCCC1`: the concentration for half-maximal inhibition (IC50) was 0.012 µM in assay [1] and 0.397 µM in assay [2].

For the molecule `CNc1nc(C)c2cc(-c3cnn(CC(F)F)c3)c(=O)n(C3CCCC3)c2n1`, the values for the IC50 in assay [1] and in assay [2] were 0.046 µM and 10 µM, respectively.

In the case of `C#Cc1cc2c(C)nc(N)nc2n(C2CCC2)c1=O`, the figures for the IC50 in assay [1] and in assay [2] were 0.11 µM and 0.657 µM, respectively.

`COc1ccc(-c2cc3c(C)nc(N)nc3n(CC(C)(C)F)c2=O)cn1`: the results for the half-maximal inhibitory concentration (IC50) in assay [1] and in assay [2] were 0.03 µM and 0.437 µM, respectively.

As to `CO[C@H]1CC[C@H](n2c(=O)c(-c3ccc(N(C)C)nc3)cc3c(C)nc(N)nc32)CC1`, the figures for the IC50 in assay [1] and in assay [2] were 0.0062 µM and 0.0101 µM, respectively.
